Molecular target: Metabotropic glutamate receptor
Assay: Compound was tested for ability to stimulate metabotropic glutamate receptor (mGluR) mediated phosphoinositide hydrolysis in rat hippocampus
Format: functional, tissue-based

EC50 | Structure (SMILES)
106 µM | N[C@@H](C(=O)O)c1cc(O)cc(O)c1
10.9 µM | N[C@H](C(=O)O)c1cc(O)cc(O)c1
